# In the OligoGym collection:
# Several values for one entry are separate records, joined by “and”; a condition that tells them apart may be missing. Equal values may be shown once. After the bases stand the sugars from the 5' end (letter, count) and the backbone: PS all phosphorothioate, else s phosphorothioate and o phosphodiester by linkage. HELM strings list units from the 5' end as sugar, base in round brackets, then linkage (d deoxyribose, r ribose, m 2'-O-methyl, p phosphodiester). Methylation of C is not given here. [moe] = 2'-O-(2-methoxyethyl) (MOE); [cEt] = constrained ethyl (cEt); [sp] = phosphorothioate linkage; e = 2'-O-(2-methoxyethyl) (MOE); k = constrained ethyl (cEt); d = 2'-deoxy (DNA)
# Legend:
# [1] = molecular target: HBV; conditions: ASO
# [2] = molecular target: IRF5; conditions: ASO, KARPAS-229, 4 µM
substance,measurement,setting,value
RNA1{[moe](A)[sp].[cEt](A)[sp].[cEt](G)[sp].d(A)[sp].d(A)[sp].d(G)[sp].d(A)[sp].d(T)[sp].d(G)[sp].d(A)[sp].d(G)[sp].d(G)[sp].d(C)[sp].[cEt](A)[sp].[cEt](T)[sp].[moe](A)}$$$$V2.0,target mRNA inhibition,"[1]; HepG2, 0.07 µM",62% and 65%
RNA1{[moe](A)[sp].[cEt](A)[sp].[moe](G)[sp].[cEt](C)[sp].d(G)[sp].d(A)[sp].d(A)[sp].d(G)[sp].d(T)[sp].d(G)[sp].d(C)[sp].d(A)[sp].d(C)[sp].[moe](A)[sp].[moe](C)[sp].[moe](G)[sp].[moe](G)}$$$$V2.0,target mRNA inhibition,"[1]; HepG2, 0.009375 µM",29%
same,target mRNA inhibition,"[1]; HepG2, 0.01875 µM",30%
same,target mRNA inhibition,"[1]; HepG2, 0.0375 µM",41%
same,target mRNA inhibition,"[1]; HepG2, 0.075 µM",71%
same,target mRNA inhibition,"[1]; HepG2, 0.15 µM",86%
same,target mRNA inhibition,"[1]; HepG2, 0.3 µM",88%
RNA1{[moe](A)[sp].[cEt](A)[sp].d(C)[sp].d(C)[sp].d(A)[sp].d(C)[sp].d(T)[sp].d(G)[sp].d(A)[sp].d(A)[sp].d(C)[sp].d(A)[sp].[cEt](A)[sp].[moe](A)[sp].[cEt](T)[sp].[moe](G)}$$$$V2.0,target mRNA inhibition,"[1]; HepG2, 0.07 µM",55% and 38%
RNA1{[moe](A)[sp].[cEt](A)[sp].d(C)[sp].d(T)[sp].d(G)[sp].d(G)[sp].d(A)[sp].d(G)[sp].d(C)[sp].d(C)[sp].d(A)[sp].d(C)[sp].[cEt](C)[sp].[moe](A)[sp].[cEt](G)[sp].[moe](C)}$$$$V2.0,target mRNA inhibition,"[1]; HepG2, 0.07 µM",65% and 53%
RNA1{[moe](A)[sp].[cEt](C)[sp].[cEt](A)[sp].d(A)[sp].d(A)[sp].d(T)[sp].d(G)[sp].d(G)[sp].d(C)[sp].d(A)[sp].d(C)[sp].d(T)[sp].d(A)[sp].[cEt](G)[sp].[cEt](T)[sp].[moe](A)}$$$$V2.0,target mRNA inhibition,"[1]; HepG2, 0.07 µM",67% and 61%
RNA1{[moe](A)[sp].[cEt](C)[sp].d(C)[sp].d(A)[sp].d(A)[sp].d(T)[sp].d(T)[sp].d(T)[sp].d(A)[sp].d(T)[sp].d(G)[sp].d(C)[sp].[cEt](C)[sp].[moe](T)[sp].[cEt](A)[sp].[moe](C)}$$$$V2.0,target mRNA inhibition,"[1]; HepG2, 0.07 µM",40% and 51%
RNA1{[moe](A)[sp].[cEt](C)[sp].d(C)[sp].d(A)[sp].d(C)[sp].d(T)[sp].d(G)[sp].d(A)[sp].d(A)[sp].d(C)[sp].d(A)[sp].d(A)[sp].[cEt](A)[sp].[moe](T)[sp].[cEt](G)[sp].[moe](G)}$$$$V2.0,target mRNA inhibition,"[1]; HepG2, 0.07 µM",75% and 64%
RNA1{[moe](A)[sp].[cEt](G)[sp].[cEt](A)[sp].d(A)[sp].d(G)[sp].d(A)[sp].d(T)[sp].d(G)[sp].d(A)[sp].d(G)[sp].d(G)[sp].d(C)[sp].d(A)[sp].[cEt](T)[sp].[cEt](A)[sp].[moe](G)}$$$$V2.0,target mRNA inhibition,"[1]; HepG2, 0.07 µM",64% and 63%
RNA1{[moe](A)[sp].[cEt](G)[sp].[cEt](A)[sp].d(A)[sp].d(G)[sp].d(T)[sp].d(C)[sp].d(C)[sp].d(A)[sp].d(C)[sp].d(C)[sp].d(A)[sp].d(C)[sp].[cEt](G)[sp].[cEt](A)[sp].[moe](G)}$$$$V2.0,target mRNA inhibition,"[1]; HepG2, 0.07 µM",58% and 48%
RNA1{[moe](A)[sp].[cEt](G)[sp].[cEt](A)[sp].d(G)[sp].d(G)[sp].d(T)[sp].d(G)[sp].d(A)[sp].d(A)[sp].d(G)[sp].d(C)[sp].d(G)[sp].d(A)[sp].[cEt](A)[sp].[cEt](G)[sp].[moe](T)}$$$$V2.0,target mRNA inhibition,"[1]; HepG2, 0.07 µM",68% and 74%
RNA1{[moe](A)[sp].[cEt](G)[sp].[cEt](G)[sp].d(A)[sp].d(G)[sp].d(T)[sp].d(T)[sp].d(C)[sp].d(C)[sp].d(G)[sp].d(C)[sp].d(A)[sp].d(G)[sp].[cEt](T)[sp].[cEt](A)[sp].[moe](T)}$$$$V2.0,target mRNA inhibition,"[1]; HepG2, 0.0092593 µM",4%
same,target mRNA inhibition,"[1]; HepG2, 0.0277778 µM",35%
same,target mRNA inhibition,"[1]; HepG2, 0.07 µM",89% and 79%
same,target mRNA inhibition,"[1]; HepG2, 0.0833333 µM",70%
same,target mRNA inhibition,"[1]; HepG2, 0.25 µM",87%
"TTGTCTAGTGTCATGG (sugars kdddddddddkekeke, PS)",target mRNA inhibition,[2],8%
"TTGTCTAGTGTCATGG (sugars kkdddddddddkekek, PS)",target mRNA inhibition,[2],24%
"TTTCTTGTCTAGTGTC (sugars k3 d10 k3, PS)",target mRNA inhibition,[2],53%
"TTTGCTCTAAACCATT (sugars k3 d10 k3, PS)",target mRNA inhibition,[2],2%
